Experimental data reported in patent US8003615B2, “Stable vitamin B6 derivative” (Daiichi Fine Chemical Co., Ltd., priority 2003, dated 2011).

Assays:
Type in all cases: physicochemical
[1] = Light stability in an eye lotion
Description: Neostigmine methylsulfate (5 mg), potassium L-aspartate (0.4 g), boric acid (5 mg), sodium borate (5 mg), methyl paraoxybenzoate (10 mg), chlorobutanol (0.1 g), and vitamin B6 derivative (0.1 g) were dissolved in sterilized purified water (70 ml). After dissolution, the solution was made into a volume of 100 ml with sterilized purified water to prepare an eye lotion. In this preparation, precipitates and the like were not observed. The prepared eye lotion in a volume of 6 ml was put into a glass bottle, and exposed to light of a D65 fluorescent lamp at a total illumination of 0, 60,000, 180,000, or 300,000 lux·hr, and then the vitamin B6 derivative was quantified by the HPLC method in the same manner as in Test Example 11 mentioned above.

[2] = Light stability in a shampoo
Description: Sodium coconut oil fatty acid methyltaurine (10.0 g), polyoxyethylene alkyl ether sodium sulfate (20.0 g), lauryl dimethylaminoacetate betaine (10.0 g), coconut oil fatty acid diethanolamide (4.0 g), propylene glycol (2.0 g), vitamin B6 derivative (0.1 g), and methyl paraoxybenzoate (0.01 g) were added to purified water (40 ml), and warmed to 70° C. for dissolution. The solution was cooled to a temperature below 35° C., and then adjusted to pH 6.8 with 10% aqueous citric acid, and made into a volume of 100 ml with purified water to prepare a shampoo. In this preparation, precipitates and the like were not observed. The prepared shampoo in a volume of 6 ml was filled in a glass bottle, and exposed to light of a D65 fluorescent lamp at a total illumination of 0, 60,000, 180,000, or 300,000 lux·hr, and then the vitamin B6 derivative was quantified. The same sample was separately stored at 50° C., and after 0 day, 14 days, one month, and two months, the vitamin B6 derivative was quantified by the HPLC method in the same manner as in Test Example 11 mentioned above.

[3] = Light stability in a drinking water
Description: Glucose (4.6 g), Aspartame (0.01 g), citric acid (0.1 g), sodium chloride (0.02 g), potassium chloride (0.02 g), magnesium chloride (0.01 g), calcium lactate (0.04 g), vitamin B6 derivative (0.01 g), sodium L-aspartate (0.07 g), sodium L-glutamate (0.02 g), L-arginine (0.02 g), and aromatic (0.1 g) were dissolved in purified water (70 ml), and then made into a volume of 100 ml with purified water to prepare a drinking water. In this preparation, precipitates and the like were not observed. The prepared drinking water in a volume of 6 ml was filled in a glass bottle, and exposed to light of a D65 fluorescent lamp at a total illumination of 0, 60,000, 180,000, or 300,000 lux·hr, and then the vitamin B6 derivative was quantified by the HPLC method in the same manner as in Test Example 1.

[4] = D65 fluorescent lamp, 180,000 lux·hr for 3 days
[5] = D65 fluorescent lamp, 300,000 lux·hr for 5 days

Cc1ncc(CO)c(CO)c1O.Cl [pyridoxine hydrochloride]
remained substance in eye lotion after irradiation [1, 4]: 68%
remained substance in eye lotion after irradiation [1, 5]: 49%
remained substance in shampoo after irradiation ([2]; shampoo pH 6.8, D65 fluorescent lamp, 180,000 lux·hr for 3 days): 60%
remained substance in shampoo after irradiation ([2]; shampoo pH 6.8, D65 fluorescent lamp, 300,000 lux·hr for 5 days): 58%
remained substance in drinking water after irradiation [3, 4]: 68%
remained substance in drinking water after irradiation [3, 5]: 56%
